ChEMBL document CHEMBL4725381, “Synthesis and activity of isoleucine sulfonamide derivatives as novel botulinum neurotoxin serotype A light chain inhibitors” (Bioorg Med Chem, 2020)
Active and inactive are the calls of the source. No cut-off for these calls is given here.

What follows are compounds tested against Botulinum neurotoxin type A (Clostridium botulinum) (UniProt P0DPI0) (assay: Inhibition of Clostridium botulinum BoNT/A light chain at 30 uM using SNAPtide as substrate preincubated with enzyme for 2 mins followed by substrate addition and measured for 0-5 mins by FRET assay relative to control).
Chain of Botulinum neurotoxin type A (Clostridium botulinum) (P0DPI0 2-448 limits assumed): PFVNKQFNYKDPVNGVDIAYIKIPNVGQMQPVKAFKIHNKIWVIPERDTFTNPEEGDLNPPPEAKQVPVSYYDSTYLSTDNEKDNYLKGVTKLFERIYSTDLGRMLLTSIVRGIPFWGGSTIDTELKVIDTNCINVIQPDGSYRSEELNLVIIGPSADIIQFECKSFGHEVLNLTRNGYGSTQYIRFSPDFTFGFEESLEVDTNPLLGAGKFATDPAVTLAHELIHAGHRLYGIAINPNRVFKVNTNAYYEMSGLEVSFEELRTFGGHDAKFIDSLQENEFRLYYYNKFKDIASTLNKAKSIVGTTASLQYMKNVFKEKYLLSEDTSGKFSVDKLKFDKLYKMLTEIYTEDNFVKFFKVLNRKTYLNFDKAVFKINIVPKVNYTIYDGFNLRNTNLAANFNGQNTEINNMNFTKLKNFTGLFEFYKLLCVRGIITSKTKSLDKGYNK

SMILES	inhibition
CC[C@H](C)[C@H](NS(=O)(=O)c1cccc(-c2ccccc2Cl)c1)C(=O)NO	50%
CC[C@H](C)[C@H](NS(=O)(=O)c1cccc(-c2ccoc2)c1)C(=O)NO	14%
CC(C)C[C@@H](NC(=O)c1cccc(-c2cc3ccccc3o2)c1)C(=O)NO	58%
CC[C@H](C)[C@H](NS(=O)(=O)c1cccc(-c2ccco2)c1)C(=O)NO	40%
CC[C@H](C)[C@H](NS(=O)(=O)c1cccc(-c2cccc([N+](=O)[O-])c2)c1)C(=O)NO	34%
CC[C@H](C)[C@H](NC(=O)c1cccc(-c2cccc(Cl)c2)c1)C(=O)NO	64%
CC[C@H](C)[C@H](NS(=O)(=O)c1cccc(-c2c(Cl)cccc2Cl)c1)C(=O)NO	66%
CC[C@H](C)[C@H](NC(=O)c1cccc(-c2cc(Cl)ccc2Cl)c1)C(=O)NO	68%
CC[C@H](C)[C@H](NS(=O)(=O)c1cccc(-c2ccc(Cl)cc2Cl)c1)C(=O)NO	48%
CC[C@H](C)[C@H](NS(=O)(=O)c1cccc(-c2cccc(Cl)c2)c1)C(=O)NO	44%
CC[C@H](C)[C@H](NC(=O)c1cccc(-c2ccco2)c1)C(=O)NO	58%
CC[C@H](C)[C@H](NS(=O)(=O)c1cccc(-c2ccc(Cl)c(Cl)c2)c1)C(=O)NO	26%
CC[C@@H](C)[C@@H](NS(=O)(=O)c1cccc(-c2cc3ccccc3o2)c1)C(=O)NO	94%
CC[C@H](C)[C@H](NS(=O)(=O)c1cccc(-c2cc3ccccc3o2)c1)C(=O)NO	61%
CC[C@H](C)[C@H](NC(=O)c1cccc(-c2cc3ccccc3o2)c1)C(=O)NO	80%
O=C(NO)C1(NS(=O)(=O)c2cccc(-c3cc4ccccc4o3)c2)CC1	inactive
CC(C)C[C@@H](NS(=O)(=O)c1cccc(-c2cc3ccccc3o2)c1)C(=O)NO	86%
CCCC[C@H](NS(=O)(=O)c1cccc(-c2cc3ccccc3o2)c1)C(=O)NO	44%
CC[C@H](C)[C@H](NC(=O)c1cccc(-c2ccccc2Cl)c1)C(=O)NO	50%
CC[C@@H](C)[C@@H](NC(=O)c1cccc(-c2cc3ccccc3o2)c1)C(=O)NO	16%
CC[C@H](C)[C@H](NS(=O)(=O)c1cccc(-c2ccc([N+](=O)[O-])cc2)c1)C(=O)NO	41%
CC[C@H](C)[C@H](NS(=O)(=O)c1cccc(-c2cc(Cl)ccc2Cl)c1)C(=O)NO	29%

What follows are compounds tested against Botulinum neurotoxin type A (Clostridium botulinum, UniProt P0DPI0) (assay: Inhibition of Clostridium botulinum BoNT/A light chain using SNAPtide as substrate preincubated with enzyme for 2 mins followed by substrate addition and measured for 0-5 mins by FRET assay).
Chain of Botulinum neurotoxin type A (P0DPI0 2-448 limits assumed): as above

SMILES	IC50
CC[C@@H](C)[C@@H](NS(=O)(=O)c1cccc(-c2ccccc2Cl)c1)C(=O)NO	0.587 µM
CC[C@@H](C)[C@@H](NS(=O)(=O)c1cccc(-c2cc3ccccc3o2)c1)C(=O)NO	14 µM
